{"source": "paper PMC13308190", "about": "“Endothelial progenitor cell susceptibility to DNA damaging and DDR-modulating compounds determines endothelial differentiation accuracy” (Stem Cell Research & Therapy, 2026)", "type_in_all_cases": "cell-based, mouse", "key": {"[1]": {"test_system": "EC d4 (endothelial progenitor cells)", "test": "RT-qPCR mRNA expression", "settings": "for Ccl2 mRNA / E-selectin mRNA / Icam-1 mRNA / Vcam-1 mRNA / eNos mRNA / iNos mRNA: Fig 8D; for Cdkn1a mRNA / Cdkn2a mRNA / Glb1 mRNA / Il6 mRNA / Il8 mRNA / Tp53 mRNA: Fig 7B", "description": "Total RNA was purified using the RNeasy Mini Kit (Qiagen, Hilden, Germany). Reverse transcriptase (RT) reaction was performed with the HighCapacity cDNA Reverse Transcription Kit (Applied Biosystems, Darmstadt, Germany) using 900–2000 ng of RNA. Quantitative RT-qPCR analysis was performed using following conditions: (1) 95 °C–10 min; (2) 45 amplification cycles with 95 °C–15 s, 55 °C–15 s, and 72 °C–17 s; (3) 95 °C–1 min, 55 °C–1 min, 65 °C–5 s. If not stated otherwise, analyses were performed in technical triplicates using pooled samples from two independent experiments (each performed with biological duplicates) by use of a CFX96 cycler (BioRad) and the SensiMix SYBR Kit (Bioline, London, UK). The primers used for mRNA expression analyses are listed in Supplementary Table 1. To ensure the specificity of the amplification product, melting curves were recorded at the end of the run. mRNA expression levels were normalized to β-Actin and Gapdh. Relative mRNA expression in mESC or corresponding untreated controls was set to 1.0. Only changes in gene expression of ≤ 0.5- and ≥ 2-fold were considered as biologically relevant.\nTo monitor prototypical functions of endothelial cells, the uptake of fluorescent 1,1-dioctadecyl-3,3,3,3-tetra-methylindocarbocyanine-labeled acetylated LDL (Dil-acLDL) was examined. Briefly, cells were incubated with Dil-acLDL (10 µg/ml, 4 h, 37 °C). After fixation (3.7% cold formaldehyde/PBS (15 min, RT) nuclei were counterstained with DAPI. The uptake of DiI-acLDL was analyzed by fluorescence microscopy (Olympus BX43, 20x objective). Additionally, the response of differentiated EC to inflammatory cytokines was measured. After treatment with a pro-inflammatory cytokine mixture (TNFα/IL-1β, 10 ng/mL) for 1 h, mRNA expression of activated EC markers E-selectin, Icam-1, Vcam-1, Ccl2, eNos, iNos was analyzed (RT-qPCR)."}, "[2]": {"test_system": "EC d4", "test": "VE-cadherin cell-cell junction immunostaining", "settings": "EC d4 treated 48 h"}, "[3]": {"test_system": "mESC", "test": "Nuclear γH2AX / 53BP1 foci (DSB)", "settings": "mESC 24 h, equitoxic concentrations", "description": "(§1) DNA double-strand breaks were monitored by immunocytochemical detection of nuclear γH2AX and 53BP1 foci. Cells were fixed with 3.7% formaldehyde/PBS (15 min, RT) and permeabilized (0.3% TritonX/PBS; 15 min, RT). […] Cell suspension was mixed with 0.5% low melting point agarose and applied onto glass slides coated with 1.5% agarose. After lysis in alkaline buffer (pH 10, 1 h, 4 °C, protected from light) and DNA denaturation in precooled electrophoresis buffer (pH > 13, 25 min, 4 °C, protected from light) electrophoresis was performed (300 mA, 25 V, 4 °C, 25 min)."}, "[4]": {"test_system": "EC d4", "test": "Nuclear γH2AX / 53BP1 foci (DSB)", "settings": "EC d4 48 h, equitoxic concentrations", "description": "as §1"}, "[5]": {"test_system": "EC d6", "test": "Mitochondrial membrane potential (TMRM-MitoTracker Green)", "settings": "EC d6 treated 24 h", "description": "Mitochondrial membrane potential (ΔΨm) was analyzed by live-cell imaging using TMRM-MitoTracker Green co-staining. Cells were seeded and differentiated on Poly-D-Lysine-fibronectine-coated live-imaging dishes. For staining, cells were incubated with 200nM MitoTracker Green (Invitrogen) and 50 nM TMRM (Invitrogen) in DMEM (30 min, 37 °C, 5% CO2). After washing with PBS, live-cell microscopy was performed using a spinning disc confocal microscope (PerkinElmer) equipped with a 60x oil-immersion objective (N.A = 1.49) and a Hamamatsu C9100 camera (1000 × 1000 pixel) (excitation (MitoTracker Green): 488 nm, excitation (TMRM): 561 nm). The cells were kept at 37 °C in OptiMEM supplemented with 10 mM HEPES during imaging. The images were obtained at emission wavelength of 527 nm (W55) and 615 nm (W70) for 488 nm and 561 nm excitation, respectively."}, "[6]": {"test_system": "EC d6", "test": "ZO1 tight junction immunofluorescence", "settings": "analysed 2 days later"}, "[7]": {"settings": "EC d4 + 5 µM 48 h, analysed in EC d6"}, "[8]": {"settings": "EC d4 + 5 µM 48 h, then + I/T (IL-1β/TNFα 10 ng/ml, 1 h)"}, "[9]": {"settings": "EC d4 + 15 µM 48 h, analysed day 6, Fig 1C"}, "[10]": {"settings": "EC d4 + 15 µM 48 h, analysed in EC d6"}, "[11]": {"settings": "EC d4 + 15 µM 48 h, then + I/T (IL-1β/TNFα 10 ng/ml, 1 h)"}}}
{"smiles": "O=c1c2ccccc2nc(/C=C/c2cccnc2)n1Cc1ccccc1", "note": "[B02]", "values": [{"measurement": "Ccl2 mRNA", "setting": "[1]; [7]", "result": "2.96 Fold of untreated control"}, {"measurement": "E-selectin mRNA", "setting": "[1]; [7]", "result": "120.46 Fold of untreated control"}, {"measurement": "Icam-1 mRNA", "setting": "[1]; [7]", "result": "3.12 Fold of untreated control"}, {"measurement": "Vcam-1 mRNA", "setting": "[1]; [7]", "result": "0.19 Fold of untreated control"}, {"measurement": "eNos mRNA", "setting": "[1]; [7]", "result": "153.40 Fold of untreated control"}, {"measurement": "iNos mRNA", "setting": "[1]; [7]", "result": "2.01 Fold of untreated control"}, {"measurement": "Ccl2 mRNA", "setting": "[1]; [8]", "result": "279.77 Fold of untreated control"}, {"measurement": "E-selectin mRNA", "setting": "[1]; [8]", "result": "257.65 Fold of untreated control"}, {"measurement": "Icam-1 mRNA", "setting": "[1]; [8]", "result": "9.69 Fold of untreated control"}, {"measurement": "Vcam-1 mRNA", "setting": "[1]; [8]", "result": "0.36 Fold of untreated control"}, {"measurement": "eNos mRNA", "setting": "[1]; [8]", "result": "184.04 Fold of untreated control"}, {"measurement": "iNos mRNA", "setting": "[1]; [8]", "result": "2.26 Fold of untreated control"}, {"measurement": "Cdkn1a mRNA", "setting": "[1]; EC d4 + 5 µM 48 h", "result": "1.71 Fold of untreated control"}, {"measurement": "Cdkn2a mRNA", "setting": "[1]; EC d4 + 5 µM 48 h", "result": "1.24 Fold of untreated control"}, {"measurement": "Glb1 mRNA", "setting": "[1]; EC d4 + 5 µM 48 h", "result": "1.45 Fold of untreated control"}, {"measurement": "Il6 mRNA", "setting": "[1]; EC d4 + 5 µM 48 h", "result": "0.80 Fold of untreated control"}, {"measurement": "Il8 mRNA", "setting": "[1]; EC d4 + 5 µM 48 h", "result": "0.83 Fold of untreated control"}, {"measurement": "Tp53 mRNA", "setting": "[1]; EC d4 + 5 µM 48 h", "result": "0.98 Fold of untreated control"}, {"measurement": "Flk1 mRNA", "setting": "[1]; [9]", "result": "6.99 Fold of mESC"}, {"measurement": "Nanog mRNA", "setting": "[1]; [9]", "result": "0.03 Fold of mESC"}, {"measurement": "Oct4 mRNA", "setting": "[1]; [9]", "result": "0.01 Fold of mESC"}, {"measurement": "Pecam1 mRNA", "setting": "[1]; [9]", "result": "0.62 Fold of mESC"}, {"measurement": "Tie1 mRNA", "setting": "[1]; [9]", "result": "29.11 Fold of mESC"}, {"measurement": "VE-cad mRNA", "setting": "[1]; [9]", "result": "484.74 Fold of mESC"}, {"measurement": "Ccl2 mRNA", "setting": "[1]; [10]", "result": "0.38 Fold of untreated control"}, {"measurement": "E-selectin mRNA", "setting": "[1]; [10]", "result": "126.11 Fold of untreated control"}, {"measurement": "Icam-1 mRNA", "setting": "[1]; [10]", "result": "1.02 Fold of untreated control"}, {"measurement": "Vcam-1 mRNA", "setting": "[1]; [10]", "result": "0.08 Fold of untreated control"}, {"measurement": "eNos mRNA", "setting": "[1]; [10]", "result": "47.93 Fold of untreated control"}, {"measurement": "iNos mRNA", "setting": "[1]; [10]", "result": "0.43 Fold of untreated control"}, {"measurement": "Ccl2 mRNA", "setting": "[1]; [11]", "result": "84.86 Fold of untreated control"}, {"measurement": "E-selectin mRNA", "setting": "[1]; [11]", "result": "165.16 Fold of untreated control"}, {"measurement": "Icam-1 mRNA", "setting": "[1]; [11]", "result": "2.52 Fold of untreated control"}, {"measurement": "Vcam-1 mRNA", "setting": "[1]; [11]", "result": "0.12 Fold of untreated control"}, {"measurement": "eNos mRNA", "setting": "[1]; [11]", "result": "55.08 Fold of untreated control"}, {"measurement": "iNos mRNA", "setting": "[1]; [11]", "result": "0.33 Fold of untreated control"}, {"measurement": "Brca1 mRNA", "setting": "[1]; EC d4 + 15 µM 48 h, Fig 5C", "result": "0.27 Fold of mESC"}, {"measurement": "Chk1 mRNA", "setting": "[1]; EC d4 + 15 µM 48 h, Fig 5C", "result": "0.92 Fold of mESC"}, {"measurement": "Rad51 mRNA", "setting": "[1]; EC d4 + 15 µM 48 h, Fig 5C", "result": "0.19 Fold of mESC"}, {"measurement": "Pgc1a mRNA", "setting": "[1]; EC d4 + 15 µM 48 h, Fig 6D", "result": "0.11 Fold of untreated control"}, {"measurement": "Cdkn1a mRNA", "setting": "[1]; EC d4 + 15 µM 48 h", "result": "2.57 Fold of untreated control"}, {"measurement": "Cdkn2a mRNA", "setting": "[1]; EC d4 + 15 µM 48 h", "result": "1.39 Fold of untreated control"}, {"measurement": "Glb1 mRNA", "setting": "[1]; EC d4 + 15 µM 48 h", "result": "2.55 Fold of untreated control"}, {"measurement": "Il6 mRNA", "setting": "[1]; EC d4 + 15 µM 48 h", "result": "1.35 Fold of untreated control"}, {"measurement": "Il8 mRNA", "setting": "[1]; EC d4 + 15 µM 48 h", "result": "0.85 Fold of untreated control"}, {"measurement": "Tp53 mRNA", "setting": "[1]; EC d4 + 15 µM 48 h", "result": "0.72 Fold of untreated control"}, {"measurement": "Cldn5 mRNA", "setting": "[1]; EC d4 + 15 µM 48 h, Fig 8C", "result": "0.18 Fold of EC d4 or d6"}, {"measurement": "Ocln mRNA", "setting": "[1]; EC d4 + 15 µM 48 h, Fig 8C", "result": "1.16 Fold of EC d4 or d6"}, {"measurement": "Tjp1 mRNA", "setting": "[1]; EC d4 + 15 µM 48 h, Fig 8C", "result": "1.26 Fold of EC d4 or d6"}, {"measurement": "Ldlr mRNA", "setting": "[1]; EC d4 + 15 µM 48 h, Fig 8F", "result": "1.78 Fold of untreated control"}, {"measurement": "VE-cadherin cell-cell junctions in EC d6 differentiated from treated EC d4", "setting": "[2]", "result": "did not trigger defects"}, {"measurement": "nuclear γH2AX foci", "setting": "[3]", "result": "significant increase"}, {"measurement": "DSB numbers (γH2AX / 53BP1 foci)", "setting": "[4]", "result": "clear increase"}, {"measurement": "mitochondrial membrane potential", "setting": "[5]", "result": "significantly reduced"}, {"measurement": "ZO1 assembly in treated EC d6", "setting": "[6]", "result": "clearly visible gaps"}]}
